According to US8481750B2 (Boehringer Ingelheim International GmbH, priority 2009, dated 2013):

target: LFA-1 binding to ICAM-1 (Homo sapiens, UniProt P05107+P20701); experiment: Inhibition of LFA-1 binding to ICAM-1 (LFA-1/Biotin-sICAM-1 AlphaScreen molecular assay); conditions: highest compound concentration 1 μM in 1% DMSO, 37° C., 90 minutes
Description: Assay to Determine Inhibition of LFA-1 Binding to ICAM-1
This assay protocol is designed to study the direct antagonism, by a test compound, of the interaction of ICAM-1 with the Leukointegrin CD18/CD11a (LFA-1).
The LFA-1/Biotin-sICAM-1 molecular assay measures the ability of test compounds to inhibit binding of LFA-1 to Biotinylated-sICAM using AlphaScreen technology (Ref: Wilson, J, Rossi, C P, Carboni, S, Fremaux, C, Perrin, D, Soto, C, Kosco-Vilbois, M, and Scheer, A: A Homogeneous 384-Well High-Throughput Binding Assay for a TNF Receptor Using Alphascreen Technology. J Biomol Screen 2003; 8:522-532) that uses TS2/4(anti-LFA-1)-custom conjugated AlphaLisa acceptor beads and streptavidin-coated donor beads from PerkinElmer. The assay was performed in white OptiPlates-384 in a volume of 60 μL using assay buffer (Dulbecco's PBS containing calcium and magnesium, 2 mM MgCl2, 0.1 mM PMSF, 0.1% BSA, pH 7.1). To each well, Biotin-sICAM was added followed by purified LFA-1 (in buffer of 50 mM triethylamine, 150 mM NaCl, 1% beta octylglucoside, 2 mM MgCl2 neutralized to pH with 1M Tris-HCl, pH 7.5). For compound testing, compound was added in 5 uL to the above in 25 uL. LFA-1 and Biotin-sICAM-1 were used at concentrations that would yield a signal to background ratio of 8-10. The highest concentration of compound was 1 μM in 1% DMSO. Positive controls were wells without compound containing LFA-1, while blanks were wells without both compound and LFA-1. Plates were mixed and incubated at 37° C. for 90 minutes. This was followed by addition of 15 μL/well TS2/4-congugated acceptor beads diluted in PBS containing 0.1% BSA for a final concentration of 10 μg/mL. The plates were mixed and incubated in the dark for 30 minutes at room temperature followed by addition of 15 μL/well streptavidin-coated donor beads diluted in PBS containing 0.1% BSA at a final concentration of 15 μg/mL. The plates were mixed and incubated in the dark for 60 minutes at room temperature and then read on an EnVision Multilabel Reader using AlphaScreen 384-well OptiPlate protocol.

Chain of LFA-1 binding to ICAM-1 (P20701 26-1170): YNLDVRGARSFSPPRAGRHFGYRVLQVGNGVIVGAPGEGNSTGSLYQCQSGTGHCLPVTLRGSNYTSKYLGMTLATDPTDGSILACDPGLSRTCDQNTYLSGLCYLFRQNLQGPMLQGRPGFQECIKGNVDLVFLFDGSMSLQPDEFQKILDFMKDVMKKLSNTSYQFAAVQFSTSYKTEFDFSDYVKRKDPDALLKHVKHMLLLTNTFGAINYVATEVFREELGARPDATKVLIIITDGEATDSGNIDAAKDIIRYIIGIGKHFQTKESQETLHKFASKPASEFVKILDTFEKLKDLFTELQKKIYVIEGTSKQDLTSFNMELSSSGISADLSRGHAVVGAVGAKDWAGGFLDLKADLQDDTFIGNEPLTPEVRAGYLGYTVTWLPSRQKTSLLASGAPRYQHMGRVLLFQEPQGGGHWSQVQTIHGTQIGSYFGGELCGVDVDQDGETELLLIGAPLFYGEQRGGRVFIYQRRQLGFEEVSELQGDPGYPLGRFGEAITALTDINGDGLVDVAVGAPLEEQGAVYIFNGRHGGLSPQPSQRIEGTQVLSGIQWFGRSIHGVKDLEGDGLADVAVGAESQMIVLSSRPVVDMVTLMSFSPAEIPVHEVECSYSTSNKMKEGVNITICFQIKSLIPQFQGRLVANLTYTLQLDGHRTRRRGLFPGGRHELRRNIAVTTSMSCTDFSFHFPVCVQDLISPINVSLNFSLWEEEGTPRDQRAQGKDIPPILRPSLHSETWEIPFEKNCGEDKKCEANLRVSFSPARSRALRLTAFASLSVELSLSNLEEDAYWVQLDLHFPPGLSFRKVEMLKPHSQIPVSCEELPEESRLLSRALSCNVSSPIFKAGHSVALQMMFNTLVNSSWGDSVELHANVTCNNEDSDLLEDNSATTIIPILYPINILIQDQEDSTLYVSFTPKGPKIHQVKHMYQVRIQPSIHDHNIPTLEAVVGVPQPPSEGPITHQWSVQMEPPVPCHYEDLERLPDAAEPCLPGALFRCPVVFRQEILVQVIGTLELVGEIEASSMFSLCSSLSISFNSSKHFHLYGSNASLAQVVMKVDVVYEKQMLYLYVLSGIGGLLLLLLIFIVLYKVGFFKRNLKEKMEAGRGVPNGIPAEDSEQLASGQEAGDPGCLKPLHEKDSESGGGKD
Chain of LFA-1 binding to ICAM-1 (P05107 23-769): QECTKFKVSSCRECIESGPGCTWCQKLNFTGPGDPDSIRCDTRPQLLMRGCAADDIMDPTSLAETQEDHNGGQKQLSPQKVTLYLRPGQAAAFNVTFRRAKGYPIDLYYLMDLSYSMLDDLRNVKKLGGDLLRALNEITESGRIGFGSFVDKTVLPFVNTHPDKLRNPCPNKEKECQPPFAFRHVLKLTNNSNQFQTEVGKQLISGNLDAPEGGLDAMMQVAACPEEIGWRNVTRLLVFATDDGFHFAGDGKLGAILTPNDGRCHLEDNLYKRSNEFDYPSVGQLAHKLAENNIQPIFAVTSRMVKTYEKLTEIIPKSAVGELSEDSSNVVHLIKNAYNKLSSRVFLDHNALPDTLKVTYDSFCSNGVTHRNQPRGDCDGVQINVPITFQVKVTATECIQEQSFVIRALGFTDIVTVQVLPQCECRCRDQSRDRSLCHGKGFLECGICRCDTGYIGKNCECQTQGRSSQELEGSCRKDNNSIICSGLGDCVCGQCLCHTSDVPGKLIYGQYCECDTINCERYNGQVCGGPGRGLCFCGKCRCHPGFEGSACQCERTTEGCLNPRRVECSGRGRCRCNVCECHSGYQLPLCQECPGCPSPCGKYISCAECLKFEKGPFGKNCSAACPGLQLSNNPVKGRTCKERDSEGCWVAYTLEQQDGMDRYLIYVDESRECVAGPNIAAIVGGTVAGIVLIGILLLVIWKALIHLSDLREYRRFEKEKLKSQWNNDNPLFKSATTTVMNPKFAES

Row | Structure (SMILES) | IC50
1 | CN(C)C1CCN(C(=O)c2ccnc(C3(NC(=O)C4(NC(=O)c5cnc6n5[C@](C)(Cc5ccc(C#N)cc5)C(=O)N6c5cc(Cl)cc(Cl)c5)CC4)CC3)c2)C1 (some centres unmarked) [Compound 1] | 1.4 nM
2 | C[C@@]1(Cc2ccc(C#N)cc2)C(=O)N(c2cc(Cl)cc(Cl)c2)c2ncc(C(=O)NC3(C(=O)NC4(c5ccc(C(=O)N6CC[C@@H](O)C6)cn5)CC4)CC3)n21 [compound 5] | 0.59 nM
3 | C[C@@]1(Cc2ccc(C#N)cc2)C(=O)N(c2cc(Cl)cc(Cl)c2)c2ncc(C(=O)NC3(C(=O)NC4(c5cc(C(=O)NCCc6ccccn6)ccn5)CC4)CC3)n21 [compound 6] | 0.82 nM
4 | C[C@@]1(Cc2ccc(C#N)cc2)C(=O)N(c2cc(Cl)cc(Cl)c2)c2ncc(C(=O)NC3(C(=O)NC4(c5ccc(C(=O)N6CCCCC6)cn5)CC4)CC3)n21 [compound 9] | 1.8 nM
5 | C[C@@]1(Cc2ccc(C#N)cc2)C(=O)N(c2cc(Cl)cc(Cl)c2)c2ncc(C(=O)NC3(C(=O)NC4(c5cccc(C(=O)N6CCCC6)n5)CC4)CC3)n21 [compound 11] | 3.4 nM
6 | C[C@@]1(Cc2ccc(C#N)cc2)C(=O)N(c2cc(Cl)cc(Cl)c2)c2ncc(C(=O)NC3(C(=O)NC4(c5ccc(C(=O)NCC6CC6)cn5)CC4)CC3)n21 [compound 13] | 0.44 nM
7 | C[C@@]1(Cc2ccc(C#N)cc2)C(=O)N(c2cc(Cl)cc(Cl)c2)c2ncc(C(=O)NC3(C(=O)NC4(c5cccc(C(=O)N6CCCCC6)n5)CC4)CC3)n21 [compound 16] | 12 nM
8 | C[C@@H](CO)NC(=O)c1ccnc(C2(NC(=O)C3(NC(=O)c4cnc5n4[C@](C)(Cc4ccc(C#N)cc4)C(=O)N5c4cc(Cl)cc(Cl)c4)CC3)CC2)c1 [compound 17] | 0.18 nM
9 | CN(CCO)C(=O)c1cccc(C2(NC(=O)C3(NC(=O)c4cnc5n4[C@](C)(Cc4ccc(C#N)cc4)C(=O)N5c4cc(Cl)cc(Cl)c4)CC3)CC2)n1 [compound 20] | 1 nM
10 | C[C@@]1(Cc2ccc(C#N)cc2)C(=O)N(c2cc(Cl)cc(Cl)c2)c2ncc(C(=O)NC3(C(=O)NC4(c5ccc(C(=O)NCc6cccnc6)cn5)CC4)CC3)n21 [compound 21] | 0.81 nM
11 | CC(=O)N1CCN(C(=O)c2cccc(C3(NC(=O)C4(NC(=O)c5cnc6n5[C@](C)(Cc5ccc(C#N)cc5)C(=O)N6c5cc(Cl)cc(Cl)c5)CC4)CC3)n2)CC1 [compound 22] | 2.1 nM
12 | CC(CO)NC(=O)c1ccc(C2(NC(=O)C3(NC(=O)c4cnc5n4[C@](C)(Cc4ccc(C#N)cc4)C(=O)N5c4cc(Cl)cc(Cl)c4)CC3)CC2)nc1 (some centres unmarked) [compound 27] | 0.74 nM
13 | C[C@@]1(Cc2ccc(C#N)cc2)C(=O)N(c2cc(Cl)cc(Cl)c2)c2ncc(C(=O)NC3(C(=O)NC4(c5cccc(C(=O)N6CCC[C@H]6C(N)=O)n5)CC4)CC3)n21 [compound 28] | 2.5 nM
14 | C[C@@]1(Cc2ccc(C#N)cc2)C(=O)N(c2cc(Cl)cc(Cl)c2)c2ncc(C(=O)NC3(C(=O)NC4(c5cccc(C(=O)NCCO)n5)CC4)CC3)n21 [compound 30] | 0.91 nM
15 | C[C@H](NC(=O)c1ccc(C2(NC(=O)C3(NC(=O)c4cnc5n4[C@](C)(Cc4ccc(C#N)cc4)C(=O)N5c4cc(Cl)cc(Cl)c4)CC3)CC2)nc1)c1ccccc1 [compound 33] | 2.7 nM
16 | CN(CCO)C(=O)c1ccnc(C2(NC(=O)C3(NC(=O)c4cnc5n4[C@](C)(Cc4ccc(C#N)cc4)C(=O)N5c4cc(Cl)cc(Cl)c4)CC3)CC2)c1 [compound 34] | 0.7 nM

Further compounds by falling IC50, results first:

Row | IC50 | Structure (SMILES)
17 | 32 nM | C[C@@]1(Cc2ccc(C#N)cc2)C(=O)N(c2cc(Cl)cc(Cl)c2)c2ncc(C(=O)NC3(C(=O)NC4(c5cccc(C(=O)NCc6ccccc6)n5)CC4)CC3)n21 [compound 25]
18 | 8.5 nM | CC(NC(=O)c1cccc(C2(NC(=O)C3(NC(=O)c4cnc5n4[C@](C)(Cc4ccc(C#N)cc4)C(=O)N5c4cc(Cl)cc(Cl)c4)CC3)CC2)n1)c1ccccn1 (some centres unmarked) [compound 12]
19 | 6.2 nM | C[C@H](NC(=O)c1ccnc(C2(NC(=O)C3(NC(=O)c4cnc5n4[C@](C)(Cc4ccc(C#N)cc4)C(=O)N5c4cc(Cl)cc(Cl)c4)CC3)CC2)c1)c1ccccc1 [compound 10]
20 | 5.2 nM | C[C@@]1(Cc2ccc(C#N)cc2)C(=O)N(c2cc(Cl)cc(Cl)c2)c2ncc(C(=O)NC3(C(=O)NC4(c5cccc(C(=O)NCc6ccncc6)n5)CC4)CC3)n21 [compound 26]
21 | 4.1 nM | C[C@@]1(Cc2ccc(C#N)cc2)C(=O)N(c2cc(Cl)cc(Cl)c2)c2ncc(C(=O)NC3(C(=O)NC4(c5cc(C(=O)NCc6ccccc6)ccn5)CC4)CC3)n21 [compound 24]
22 | 4 nM | C[C@@]1(Cc2ccc(C#N)cc2)C(=O)N(c2cc(Cl)cc(Cl)c2)c2ncc(C(=O)NC3(C(=O)NC4(c5cc(C(=O)NCCc6ccccc6)ccn5)CC4)CC3)n21 [compound 32]
23 | 2.6 nM | C[C@@]1(Cc2ccc(C#N)cc2)C(=O)N(c2cc(Cl)cc(Cl)c2)c2ncc(C(=O)NC3(C(=O)NC4(c5cccc(C(=O)N6CCCC(C(N)=O)C6)n5)CC4)CC3)n21 (some centres unmarked) [compound 23]
24 | 2.4 nM | CN1CCN(C(=O)c2ccc(C3(NC(=O)C4(NC(=O)c5cnc6n5[C@](C)(Cc5ccc(C#N)cc5)C(=O)N6c5cc(Cl)cc(Cl)c5)CC4)CC3)nc2)CC1 [compound 37]
25 | 1.8 nM | C[C@@]1(Cc2ccc(C#N)cc2)C(=O)N(c2cc(Cl)cc(Cl)c2)c2ncc(C(=O)NC3(C(=O)NC4(c5cccc(C(=O)N6CCC(CO)CC6)n5)CC4)CC3)n21 [compound 18]
26 | 1.6 nM | C[C@@]1(Cc2ccc(C#N)cc2)C(=O)N(c2cc(Cl)cc(Cl)c2)c2ncc(C(=O)NC3(C(=O)NC4(c5ccc(C(=O)N6CCC[C@H]6C(N)=O)cn5)CC4)CC3)n21 [compound 8]
27 | 1.5 nM | CC(=O)NC1CCN(C(=O)c2cccc(C3(NC(=O)C4(NC(=O)c5cnc6n5[C@](C)(Cc5ccc(C#N)cc5)C(=O)N6c5cc(Cl)cc(Cl)c5)CC4)CC3)n2)C1 (some centres unmarked) [compound 15]
28 | 1.4 nM | C[C@@]1(Cc2ccc(C#N)cc2)C(=O)N(c2cc(Cl)cc(Cl)c2)c2ncc(C(=O)NC3(C(=O)NC4(c5cc(C(=O)N6CCC(CO)CC6)ccn5)CC4)CC3)n21 [compound 7]
29 | 0.92 nM | C[C@@]1(Cc2ccc(C#N)cc2)C(=O)N(c2cc(Cl)cc(Cl)c2)c2ncc(C(=O)NC3(C(=O)NC4(c5cc(C(=O)NCCO)ccn5)CC4)CC3)n21 [compound 4]
30 | 0.67 nM | CNC(=O)c1ccnc(C2(NC(=O)C3(NC(=O)c4cnc5n4[C@](C)(Cc4ccc(C#N)cc4)C(=O)N5c4cc(Cl)cc(Cl)c4)CC3)CC2)c1 [compound 31]
31 | 0.43 nM | C[C@@]1(Cc2ccc(C#N)cc2)C(=O)N(c2cc(Cl)cc(Cl)c2)c2ncc(C(=O)NC3(C(=O)NC4(c5ccc(C(=O)N6CCCC(CO)C6)cn5)CC4)CC3)n21 (some centres unmarked) [compound 29]
32 | 0.39 nM | C[C@@]1(Cc2ccc(C#N)cc2)C(=O)N(c2cc(Cl)cc(Cl)c2)c2ncc(C(=O)NC3(C(=O)NC4(c5ccc(C(=O)NCCO)cn5)CC4)CC3)n21 [compound 35]
33 | 0.29 nM | C[C@@]1(Cc2ccc(C#N)cc2)C(=O)N(c2cc(Cl)cc(Cl)c2)c2ncc(C(=O)NC3(C(=O)NC4(c5ccc(C(=O)NCc6ccco6)cn5)CC4)CC3)n21 [compound 3]
34 | 0.27 nM | C[C@@]1(Cc2ccc(C#N)cc2)C(=O)N(c2cc(Cl)cc(Cl)c2)c2ncc(C(=O)NC3(C(=O)NC4(c5ccc(C(=O)NCC(N)=O)cn5)CC4)CC3)n21 [compound 14]
35 | 0.25 nM | C[C@@]1(Cc2ccc(C#N)cc2)C(=O)N(c2cc(Cl)cc(Cl)c2)c2ncc(C(=O)NC3(C(=O)NC4(c5ccc(C(=O)NCc6ccccn6)cn5)CC4)CC3)n21 [compound 36]
